Read-outs that look alike come from different tables or passages of the source.

Experimental findings from patent US20020198172A1, “Method of treating motor neuron diseases and demyelinating diseases with citicoline” (priority 1997, published 2002) are described below.

Data set [1] concerns patient with chronic progressive multiple sclerosis. It counts as in vivo. The source says: (§1) Currently, they are diagnosed with chronic-progressive multiple sclerosis. They are afflicted with visual impairments, chronic fatigue, difficulty with speech articulation, tremors in the right and left hands, decreased fine motor movement in the right greater than left hands and decreased motor strength in their lower extremities. They are without weight bearing and is confined to a wheelchair. When asked what their major barriers are as far as functional abilities on a day to day basis, they place fatigue at the top of their impairment list followed by speech difficulties and decreased fine motor movement of their hands. They experienced marked spasticity of their lower extremities with the progression of their neurological condition over the course of several years and eventually resorted to a baclofen pump which was implanted in 1997. […] They receive 85 micrograms of baclofen per day.

Data set [2] deals with experimental autoimmune encephalomyelitis. Put plainly: EAE prevention therapy, daily functional score (Example 2). The data set is classed as in vivo, female Lewis rats. The following applies: score 0 to 4. How it is done:
Thirty-two female Lewis rats are divided into four groups of eight each and on day one administered saline, citicoline (500 or 1000 mg/kg, i.p.), or dexamethasone (0.0375 mg/kg), respectively. Dexamethasone acts as a positive control through its ability to suppress immune function. […] Therapy is continued daily. […] Numerical values are averages of the functional scores in each treatment group from Days 14-21 of the study.

For data set [3], the system named is patient with chronic progressive multiple sclerosis. Put plainly: Case, chronic progressive multiple sclerosis, citicoline response (Example 13). The data set is classed as in vivo, human.
Excerpt: as §1

The next data set has as its system patients. As to the kind of experiment: Observed tolerance of citicoline in patients. The data set is classed as in vivo, human. The following applies: doses about 250 mg to about 2000 mg for several weeks to several years. From the text: Dosages may be varied over time depending on the severity of symptoms, individual patient tolerance, route of administration and response to treatment. Treatment may be continued indefinitely if needed and if tolerated well.

Data set [4] concerns patients suffering from ALS. As to the kind of experiment: Double-blind study against placebo in ALS, survival (Example 8). The data set is classed as in vivo, human. As to the method:
A double-blind study against placebo is performed as follows: 77 patients suffering from ALS are treated with 500 mg each citicoline by injection (monosodium salt dissolved in 10 ml sterile isotonic solution of sodium chloride) or be a solid tablet or soft gel capsule orally and administered daily, for a period of 12 to 18 months, and 78 patients receive a placebo. The results obtained are analyzed in terms of survival in the study, it being understood that “study drop-outs” (departures from the study) include individuals who actually die, and also individuals whose clinical state necessitates a tracheotomy or transfer to assisted ventilation.

Data set [5] relates to patients with bulbar palsy caused by ALS. Put plainly: Human study in bulbar palsy caused by ALS (Example 7). It counts as in vivo. The following applies: 500-1000 mg citicoline daily. As to the method: Six patients with bulbar palsy caused by ALS are treated with 500-1000 mg each citicoline by injection (monosodium salt dissolved in 10 ml sterile isotonic solution of sodium chloride) or by a solid tablet or soft gel capsule orally and administered daily.

In data set [6] the test system is patients with chronic multiple sclerosis. Put plainly: Human study in chronic multiple sclerosis, EDSS and SNRS (Example 6). The following applies: 250, 500, or 1,000 mg each patient each day orally or intravenously for six months; eight patients. It counts as in vivo. How it is done:
A study of two sets of four patients each with chronic multiple sclerosis is undertaken. Each patient is first examined for normal hepatic, renal, and bone marrow functioning to establish baseline values. Each of the patients in each group is then treated either with citicoline dissolved in sterile preservative-free isotonic saline 10% or oral tablet or capsule. The citicoline is administered orally or intravenously at a dosage of 250, 500, or 1,000 mg each patient each day for six months. Patients are examined on a daily basis. During the treatment period, daily blood counts and twice weekly blood chemistries are performed on each patient. The neurologic function of each of these patients is measured using the expanded Krutzke disability status scale (EDSS), and the Scripps neurologic rating scale (SNRS).

Where [7] appears, read: patient history since around 1986.
Setting [8] is: dexamethasone 0.0375 mg/kg daily from day one.
Setting [9] is: citicoline 500 mg/kg i.p. daily from day one.
Setting [10] is: citicoline 1000 mg/kg i.p. daily from day one.

With `C[C@]12C=CC(=O)C=C1CC[C@@H]1[C@@H]2C(=O)C[C@@]2(C)[C@H]1CC[C@]2(O)C(=O)CO` [Prednisone], the “effect of earlier treatment on multiple sclerosis” value (shortened to “effect of earlier treatment”) in data set [1] (setting [7]) is “worked initially”.

With “ACTH: drug often used to treat ALS or MS (SYSMEHFRWGKPVGKKRRPVKVYPNGAEDESAEAFPLEF; Corticotropin; UniProt P01189 138-176, looked up)”, the “effect of earlier treatment” value in data set [1] (setting [7]) is “worked initially”.

Regarding `Nc1nc(Cl)nc2c1ncn2[C@H]1C[C@H](O)[C@@H](CO)O1` [Cladribine], in data set [1] (setting [7]), the “effect of earlier treatment” value is “no effect”.

`O=P1(N(CCCl)CCCl)NCCCO1` (stereo not drawn) [Cytoxan]: the “course of earlier treatment, tolerability” value in data set [1] (setting [7]) is given as “discontinued due to adverse events”.

With `Cn1cnc([N+](=O)[O-])c1Sc1ncnc2[nH]cnc12` [Imuran], the “effect of earlier treatment” value in data set [1] (in vivo) is given as “no effect”.

`C[C@@H]1C[C@H]2[C@@H]3CCC4=CC(=O)C=C[C@]4(C)[C@@]3(F)[C@@H](O)C[C@]2(C)[C@@]1(O)C(=O)CO` [Dexamethasone]: in data set [2] (setting [8]), the “Mean Functional Score Day 14” value worked out at 0.14, the “Mean Functional Score Day 15” value came out at 0.42, the “Mean Functional Score Day 16” value was 0.0 and the “Mean Functional Score Day 17” value was 0.14. In addition, in data set [2] (setting [8]), the “Mean Functional Score Day 18” value was 0.28, the “Mean Functional Score Day 19” value is given as 0.64, the “Mean Functional Score Day 20” value turned out to be 0.57 and the “Mean Functional Score Day 21” value stood at 0.64.

For the compound `C[N+](C)(C)CCOP(=O)(O)OP(=O)([O-])OC[C@H]1O[C@@H](n2ccc(N)nc2=O)[C@H](O)[C@@H]1O` [citicoline, cytidine-5′-diphosphocholine], the adverse side effects result in data set [3] (500 mg per day every morning, first two weeks) was “no adverse side effects”. The “balance and fatigue on the first two days of increased dosage” value in data set [3] (1000 mg per day (500 mg a.m., 500 mg p.m.)) is “balance had been poor and that their fatigue had increased”. Further, in data set [3] (2000 mg per day (1000 mg a.m., 1000 mg p.m.)), the “fatigue after dosage increase” value is “worsening of fatigue in the morning hours for approximately two days”. Further, the patient tolerance entry in the data set with patients is “tolerate citicoline well”. Besides, the “patients who die (study drop-outs)” value in data set [4] (500 mg citicoline daily for 12 to 18 months, 77 patients, placebo 50%) is recorded as 20%. Moreover, the “patients who die (study drop-outs)” value in data set [4] (subjects with early bulbar involvement or the bulbar form of ALS, 500 mg citicoline daily, placebo 65%) is 30%. In data set [2] (setting [9]), the “Mean Functional Score Day 14” value is on record as 0.43, the “Mean Functional Score Day 15” value is on record as 0.41, the “Mean Functional Score Day 16” value was 0.37 and the “Mean Functional Score Day 17” value was 0.38. For the same compound, in data set [2] (setting [9]), the “Mean Functional Score Day 18” value was found to be 0.28, the “Mean Functional Score Day 19” value turned out to be 0.59, the “Mean Functional Score Day 20” value is given as 0.68 and the “Mean Functional Score Day 21” value came out at 0.87. In data set [2] (setting [10]), the “Mean Functional Score Day 14” value is 0.56, the “Mean Functional Score Day 15” value was 0.78, the “Mean Functional Score Day 16” value is 0.84 and the “Mean Functional Score Day 17” value turned out to be 0.69. In addition, in data set [2] (setting [10]), the “Mean Functional Score Day 18” value turned out to be 0.62, the “Mean Functional Score Day 19” value is listed as 0.91, the “Mean Functional Score Day 20” value was found to be 0.75 and the “Mean Functional Score Day 21” value was 0.84. Also, the “side effects of this treatment” value in data set [5] is “insignificant”. Besides, the toxic side effects result in data set [6] is on record as “no evidence of any significant toxic side effects”.

In the case of `NCC(CC(=O)O)c1ccc(Cl)cc1` (stereo not drawn) [baclofen], the “ability to bear weight on lower extremities” value in data set [1] (baclofen pump, 85 micrograms per day) is recorded as “lessened their ability to bear weight on their lower extremities”. Also, the “spasticity in lower extremities” value in data set [1] (baclofen pump, continuous infusion into spinal fluid, 85 micrograms per day) was “reduced the spasticity considerably”.
